Results reported in patent EP0934065B1, “NOVEL CRYPTOPHYCIN DERIVATIVES AS ANTI-NEOPLASTIC AGENTS” (priority 1996, dated 1998).
pIC50: −log10 of the molar value. Values after ≈ are worked out from the molar mass of the structure shown. Structures can show the parent of a compound that is named as a salt. Where two headings read alike, the source gives them in different places.

What was measured:
physchem [1] = assay: physchem
Text: Table 4. Solubility of cryptophycin glycinate 12 in various parenteral vehicles.

physchem [2] = assay type: physicochemical; settings: for solubility: water
[3] = tested on: GC3 human colon carcinoma cells; assay: cells; assay type: cell-based; settings: 72 hours incubation, MTT
Method: Selected wells of a 96 well plate were seeded with GC3 human colon carcinoma cells ([…] cells in 100µl assay medium/well) twenty four hours prior to test compound addition. Cell free assay medium was added to other select wells of the 96 well plate. The assay medium (RPMI-1640 was the medium used; however, any medium that will allow the cells to survive would be acceptable) was supplemented with 10% dialyzed fetal bovine serum and 25 mM HEPES buffer.
The test compound was stored in an amber bottle prior to testing. Fresh dimethylsulfoxide stock solution (200µg/ml) was prepared immediately prior to preparation of test sample dilutions in phosphate-buffered saline (PBS). A dilution of 1:20 dimethylsulfoxide solution in PBS was prepared such that the final concentration was 10 µg/ml. Serial 1:3 dilutions using PBS (.5ml previous sample of 1ml PBS) were prepared. Falcon 2054 tubes were used for the assay.
A 10ul sample of each dilution of test compound was added in triplicate to wells of GC3 plates. The plates were incubated for 72 hours at about 37°C. A 10µl sample of stock […] salt ("MTT" 5 mg/ml in PBS) was added to each well. The plates were incubated for about an hour at 37°. The plates were centrifuged, media was decanted from the wells and 100µl acid-isopropanol (0.04 N HCl in isopropanol) was added to each well. The plate was read within one hour using a test wavelength of 570nm (SpectraMax reader).

[4] = tested on: A-10 rat aortic smooth muscle cells; assay: Immunofluorescence: effects on the cytoskeleton; assay type: cell-based; settings: A-10 cells, 2µM cytochalasin B, 24 hours
Method: (§1) A-10 cells are grown to near-confluency on glass coverslips in BME/10% FBS. Compounds in PBS are added to the indicated final concentrations and cells are incubated for an additional 24 hours. For the staining of microtubules and intermediate filaments, the cells are fixed with cold methanol and incubated with PBS containing 10% calf serum to block nonspecific binding sites. Cells are then incubated at 37°C for 60 min. With either monoclonal anti-β-tubulin or with monoclonal anti-vimentin at dilutions recommended by the manufacturer. Bound primary antibodies are subsequently visualized by a 45 minute incubation with fluorescein-conjugated rabbit antimouse IgG. The coverslips are mounted on microscope slides and the fluorescence patterns are examined and photographed using a Zeiss Photomicroscope I11 equipped with epifluorescence optics for fluorescein. […] PBS containing 100nM TRITC-phalloidin is then added and the mixture is allowed to incubate for 45 min. At 37°C. The cells are washed rapidly with PBS before the coverslips are mounted and immediately photographed as described above.
After 24 hours, microtubules and vimentin intermediate filaments are visualized by indirect immunofluorescence and microfilaments are stained using TRITC-phalloidin. The morphological effects of each drug is examined. […]

A-10 cells [5] = assay: Effects on taxol-stabilized microtubules; assay type: cell-based, rat
Method: as §1
After 24 hours, microtubule organization is examined by immunofluorescence as described above. […] Similarly, microtubules pretreated with taxol are observed with cryptophycin treatment.

A-10 cells [6] = assay: Reversibility of microtubule depolymerization; assay type: cell-based, rat; settings: 100nM vinblastine 24 hr
Method: as §1
The cells are then washed and incubated in drug-free medium for periods of 1 hour or 24 hours. […] Cells are visualized for microtubule state after treatment with a cryptophycin compound of this invention at either 1 hour or 24 hours after removal of the cryptophycin compounds.

[7] = pH 8, room temperature, read-out: solubility value

COc1ccc(C[C@H]2NC(=O)/C=C/C[C@@H]([C@H](C)[C@@H](O)[C@@H](Cl)c3ccccc3)OC(=O)[C@H](CC(C)C)OC(=O)C(C)(C)CNC2=O)cc1Cl [Compound 1, cryptophycin 55]
Comparative solubilities (physchem [1]; excipient 1: Propylene Glycol 15, Ethanol 10 %v/v, volume adjusted 0.05M acetate buffer, BQL = Below quantitation limit, approximately 0.001 mg/ml): BQL
aqueous solubility over the pH range studied (physchem [2]; aqueous pH 4-8, room temperature): declined as the pH bacame basic
solubility (physchem [2]; pH 4, water, pH of 4, read-out: aqueous solubility value): ~50 µg/mL (≈ 70.9 µM)
solubility (physchem [2]; [7]): 10 µg/mL (≈ 14.2 µM)

COc1ccc(C[C@H]2NC(=O)/C=C/C[C@@H]([C@H](C)[C@@H](OC(=O)CN)[C@@H](Cl)c3ccccc3)OC(=O)[C@H](CC(C)C)OC(=O)C(C)(C)CNC2=O)cc1Cl [Compound 12]
pIC50 ([3]; Homo sapiens, Colon carcinoma cell): 10.00
solubility (physchem [1]; 0.05m acetate buffer, pH 4, aqueous buffer, Comparative solubilities, excipient 5: 0.05M Acetate buffer pH 4.0 100 %v/v): 30 µg/mL (≈ 39.3 µM)
solubility (physchem [1]; emulphor el719 in acetate buffer, aqueous buffer, Comparative solubilities, excipient 4: Emulphor EL719 1 (w/v), volume adjusted 0.05M acetate buffer): 1500 µg/mL (≈ 1970 µM)
solubility (physchem [1]; ethanol/acetate buffer, pH 4, organic solvent or mixture, Solubility in parenteral vehicle, vehicle 3: Ethanol 10 %v/v, 0.05M Acetate buffer pH 4.0 qs): 1290 µg/mL (≈ 1690 µM)
solubility (physchem [1]; ethanol/propylene glycol/acetate buffer, pH 4, organic solvent or mixture, Solubility in parenteral vehicle, vehicle 2: Ethanol 10, Propylene Glycol 10 %v/v, 0.05 M Acetate buffer pH 4.0 qs): 1990 µg/mL (≈ 2610 µM)
solubility (physchem [1]; ethanol/propylene glycol/acetate buffer, pH 4, organic solvent or mixture, Solubility in parenteral vehicle, vehicle 6: Ethanol 10, Propylene Glycol 25 %v/v, 0.05 M Acetate buffer pH 4.0 qs): 10300 µg/mL (≈ 13500 µM)
solubility (physchem [1]; ethanol/propylene glycol/acetate buffer, pH 4, organic solvent or mixture, Solubility in parenteral vehicle, vehicle 7: Ethanol 10, Propylene Glycol 15 %v/v, 0.05 M Acetate buffer pH 4.0 qs): 4320 µg/mL (≈ 5660 µM)
solubility (physchem [1]; ethanol/propylene glycol/citrate buffer, pH 4, organic solvent or mixture, Solubility in parenteral vehicle, vehicle 1: Ethanol 10, Propylene Glycol 10 %v/v, 0.05 M Citrate buffer pH 4.0 qs): 110 µg/mL (≈ 144 µM)
solubility (physchem [1]; polysorbate 80/acetate buffer, pH 4, Solubility in parenteral vehicle, vehicle 5: Polysorbate 80 0.5 (w/v), 0.05 M Acetate buffer pH 4.0 qs): 2210 µg/mL (≈ 2900 µM)
solubility (physchem [1]; polysorbate 80 in acetate buffer, aqueous buffer, Comparative solubilities, excipient 3: Polysorbate 80 1(w/v), volume adjusted 0.05M acetate buffer, BQL = Below quantitation limit, approximately 0.001 mg/ml): 1000 to 2000 µg/mL (≈ 1310 to 2620 µM)
solubility (physchem [1]; propylene glycol/acetate buffer, pH 4, organic solvent or mixture, Solubility in parenteral vehicle, vehicle 4: Propylene Glycol 10 %v/v, 0.05 M Acetate buffer pH 4.0 qs): 1580 µg/mL (≈ 2070 µM)
solubility (physchem [1]; propylene glycol/ethanol/acetate buffer, organic solvent or mixture): > 2000 µg/mL
solubility (physchem [1]; propylene glycol/peg 3000/acetate buffer, organic solvent or mixture): > 2000 µg/mL
solubility (physchem [2]; [7]): 30 µg/mL (≈ 39.3 µM)

COc1ccc(CC2NC(=O)C=CCC(C(C)C(OC(=O)CCN)C(Cl)c3ccccc3)OC(=O)C(CC(C)C)OC(=O)C(C)(C)CNC2=O)cc1Cl (stereo not shown) [Compound 14, Cryptophycin 55 b-alaninate hydrochloride salt]
pIC50 [3]: 7.68

COc1ccc(CC2NC(=O)C=CCC(C(C)C(OC(=O)C(C)N)C(Cl)c3ccccc3)OC(=O)C(CC(C)C)OC(=O)C(C)(C)CNC2=O)cc1Cl (stereo not shown) [Compound 18, Cryptophycin 55 (L)-alaninate hydrochloride salt]
pIC50 [3]: 8.59

COc1ccc(C[C@H]2NC(=O)/C=C/C[C@@H]([C@H](C)[C@@H](OC(=O)[C@@H](N)CCCCN)[C@@H](Cl)c3ccccc3)OC(=O)[C@H](CC(C)C)OC(=O)C(C)(C)CNC2=O)cc1Cl [Compound 22, Cryptophycin 55 (L)-lysinate di-hydrochloride salt]
pIC50 [3]: 8.14

COc1ccc(CC2NC(=O)C=CCC(C(C)C(OC(=O)C(N)CCCCN)C(Cl)c3ccccc3)OC(=O)C(CC(C)C)OC(=O)C(C)(C)CNC2=O)cc1Cl (stereo not shown) [Compound 34, Cryptophycin 55 (D)-lysinate di-hydrochloride salt]
pIC50 ([3]; Table 2 of Example 94): 8.19

COc1ccc(CC2NC(=O)C=CCC(C(C)C(OC(=O)[C@@H](N)CN)C(Cl)c3ccccc3)OC(=O)C(CC(C)C)OC(=O)C(C)(C)CNC2=O)cc1Cl (stereo partly drawn) [Compound 44, Cryptophycin 55 (S)-2,3-diaminopropionate dihydrochloride salt]
pIC50 ([3]; Table 2 of Example 94): 7.55

COc1ccc(CC2NC(=O)C=CCC(C(C)C(OC(=O)C(N)CO)C(Cl)c3ccccc3)OC(=O)C(CC(C)C)OC(=O)C(C)(C)CNC2=O)cc1Cl (stereo not shown) [Compound 46, Cryptophycin 55 (L)-serinate hydrochloride salt]
pIC50 ([3]; Table 2 of Example 94): 7.30

C=C1[C@@H](C)[C@H]2[C@H](Cc3ccccc3)NC(=O)[C@]23OC(=O)/C=C/[C@H](O)CCC[C@@H](C)C/C=C/[C@H]3[C@@H]1O [Cytochalasin B, cytochalasin B]
effect on microfilaments ([4]; TRITC-phalloidin): complete depolymerization of microfilaments
effect on distribution of microtubules and intermediate filaments ([4]; indirect immunofluorescence): did not affect the distribution of either microtubules or intermediate filaments

CC(=O)O[C@H]1C(=O)[C@@]2(C)[C@H]([C@H](OC(=O)c3ccccc3)[C@]3(O)C[C@H](OC(=O)[C@H](O)[C@@H](NC(=O)c4ccccc4)c4ccccc4)C(C)=C1C3(C)C)[C@]1(OC(C)=O)CO[C@@H]1C[C@@H]2O [Taxol, taxol]
microtubule organization (A-10 cells [5]; 10µM taxol, compared with control cells): extensively bundled

CC[C@]1(O)C[C@@H]2CN(CCc3c([nH]c4ccccc34)[C@@](C(=O)OC)(c3cc4c(cc3OC)N(C)[C@H]3[C@@](O)(C(=O)OC)[C@H](OC(C)=O)[C@]5(CC)C=CCN6CC[C@]43[C@@H]65)C2)C1 [Vinblastine, vinblastine]
microtubule repolymerization after removal of drug (A-10 cells [6]; then drug-free medium 1 hour): significant levels of microtubules
microtubule repolymerization after removal of drug (A-10 cells [6]; then drug-free medium 24 hours): complete morphological recovery
microtubule depolymerization, non-pretreated cells (A-10 cells [5]; 100nM vinblastine, 24 hours): complete depolymerization of microtubules
microtubule depolymerization after pretreatment with taxol (A-10 cells [5]; 3 hours 10µM taxol, then 100nM vinblastine, 24 hours): pretreatment with taxol prevented microtubule depolymerization

Cryptophycin 55 3,6,9-tioxadecanoate [Compound 48]
pIC50 ([3]; Table 2 of Example 94): 8.00

Cryptophycin 55 (2'-di-t-butylphosphatyl)phenylacetate [Compound 5]
pIC50 ([3]; Table 2 of Example 94): 7.51

Cryptophycin 55 (D)-aspartate hydrochloride salt [Compound 40]
pIC50 ([3]; Table 2 of Example 94): 8.70

Cryptophycin 55 (L) -γ-glutamate hydrochloride salt [Compound 42]
pIC50 ([3]; Table 2 of Example 94): 7.82

Cryptophycin 55 (L)-aspartate hydrochloride salt [Compound 38]
pIC50 ([3]; Table 2 of Example 94): 8.80

Cryptophycin 55 (L)-α-glutamate hydrochloride salt [Compound 36]
pIC50 ([3]; Table 2 of Example 94): 8.55

Cryptophycin 55 N-methylpyridinium acetate salt [Compound 8]
pIC50 [3]: 8.66
pIC50 ([3]; Table 2 of Example 94): 6.94

Cryptophycin 55 N-t-Boc-3-(3-chloro-4-methoxyphenyl)-(D)-alaninate [Compound 9]
pIC50 ([3]; Table 2 of Example 94): 8.66

Cryptophycin 55 N-t-Boc-(D)-alaninate [Compound 19]
pIC50 ([3]; Table 2 of Example 94): 10.00

Cryptophycin 55 N-t-Boc-glycinate [Compound 11]
pIC50 ([3]; Table 2 of Example 94): 8.17

Cryptophycin 55 Na-Ne-di-t-Boc-(L)-lysinate [Compound 21]
pIC50 ([3]; Table 2 of Example 94): 7.68

Cryptophycin 55 glycidylglycinate hydrochloride salt [Compound 47]
pIC50 ([3]; Table 2 of Example 94): 8.60

Cryptophycin 55 nicotinoate hydrochloride salt [Compound 7]
pIC50 [3]: 6.94
pIC50 ([3]; Table 2 of Example 94): 8.43
